Publication PMC4413184, “Seco-Taondiol, an Unusual Meroterpenoid from the Chilean Seaweed Stypopodium flabelliforme and Its Gastroprotective Effect in Mouse Model” (Marine Drugs, 2015)
“Also recorded” adds a separate entry of the source. Marks after values point to notes of the source that are not given here.

Columns and labels:
[1] = system: HCl/EtOH-induced gastric lesions in mice; test: HCl/EtOH-induced gastric lesions model in mice; assay type: in vivo; conditions: for gastroprotective activity (in words): HCl/EtOH-induced gastric lesions model in mice; for Lesion Index (mm) / % Lesion Reduction / inhibition of the appearance of gastric mucosal lesions: mice; for Lesion Index (mm) / % Lesion Reduction: oral, title: 30 mg/kg, method: meroditerpenoids 40 mg/kg, lansoprazole 30 mg/kg; for Lesion Index (mm): mean ± sd, n = 7; for % Lesion Reduction: versus control; for inhibition of the appearance of gastric mucosal lesions: oral administration at 40 mg/kg
Procedure: The gastroprotective activity of the compounds 4a–5a, and 9, 11 was assessed in the HCl/EtOH-induced lesion model as described previously. Mice were randomly distributed into groups of seven animals each and fasted for 12 h with free access to water prior to the experiment. Fifty min after oral administration of the meroditerpenoids (40 mg/kg), lansoprazole (30 mg/kg) or 1% Tween 80 (10 mL/kg), all groups were orally treated with 0.2 mL of a solution containing 0.3 M HCl/60% ethanol (HCl/EtOH) for gastric lesion induction. Animals were sacrificed 1 h after the administration of HCl/EtOH, and the stomachs were excised and inflated by injection of saline (1 mL). The ulcerated stomachs were fixed in 5% formalin for 30 min and opened along the greater curvature. […] The length (mm) of each lesion was measured, and the lesion index was expressed as the sum of the length of all lesions.

[2] = Cytotoxicity MTT assay, AGS cells; assay type: cell-based, human; conditions: human, AGS cells (human gastric epithelial cells), 48 h incubation
Procedure: (§1) The cytotoxic assay expressed as cell viability was conducted using MTT assay method. Cells at a density of 3 × 10^4 of MRC fibroblasts or AGS cells were plated in 96-well culture dishes. Compounds were assayed at concentrations ranging from 0 up to 500 μM. Incubated at 37 °C in humidified CO2 incubator for 24 h. After incubation, various concentrations in DMSO solvent of the compounds were added. Each compound was tested in quadruplicate and repeated three times. After 48 h incubation, assay was stop by adding MTT reagent (3-(4,5dimethylthiazol-2-yl)-2,5-diphenyltetrazolium bromide) and the incubation continue for next 4 h before the addition of MTT stop solution containing sodium dodecyl sulphate (SDS), the incubation continue for next 24 h. optical density was measured using microplate reader at 550 nm. IC50 value obtained from the plotted graph between percentage live cells compared to control.

[3] = Cytotoxicity MTT assay, fibroblasts; assay type: cell-based, human; conditions: human, MRC fibroblasts, 48 h incubation
Procedure: as §1

[4] = system: HCl/EtOH-induced gastric lesions in indomethacin-pretreated mice; test: HCl/EtOH-induced gastric lesions in indomethacin-pretreated mice; assay type: in vivo; conditions: indomethacin 30 mg/kg s.c. 30 min before, 1a 35 mg/kg, 3a 40 mg/kg oral
Procedure: (§2) To investigate the involvement of endogenous prostaglandins in the gastroprotective effect of 1a and 3a, indomethacin s.c. (30 mg/kg, an inhibitor of the prostaglandin synthesis was dissolved in 5% NaHCO3) was injected 30 min before administration of 1a, 3a or vehicle (IND-treated). Fifty min after oral administration of 1a (35 mg/kg), 3a (40 mg/kg) or vehicle, all groups were orally treated with 0.2 mL of a solution containing 0.3 M HCl/60% ethanol (HCl/EtOH) for gastric lesion induction. Animals were sacrificed 1 h after the administration of HCl/EtOH, and the stomachs were excised and inflated by injection of saline (1 mL). The gastric mucosal lesions were induced and the length of gastric lesions was measured as described above.

[5] = system: HCl/EtOH-induced gastric lesions in NEM-pretreated mice; test: HCl/EtOH-induced gastric lesions in N-ethylmaleimide (NEM)-pretreated mice; assay type: in vivo; conditions: NEM 10 mg/kg s.c. 30 min before, 1a 35 mg/kg, 3a 40 mg/kg oral
Procedure: as §2, with “sulfhydryl compounds (SHs)” for “endogenous prostaglandins”, “NEM” for “indomethacin”, “(10” for “(30”, “SH blocker” for “inhibitor of the prostaglandin synthesis”, “saline)” for “5% NaHCO3)”, “(NEM-treated).” for “(IND-treated).”

[6] = system: HCl/EtOH-induced gastric lesions in L-NAME-pretreated mice; test: HCl/EtOH-induced gastric lesions in L-NAME-pretreated mice; assay type: in vivo; conditions: L-NAME 70 mg/kg i.p. 30 min before, 1a 35 mg/kg, 3a 40 mg/kg oral
Procedure: as §2, with “nitric oxide (NO)” for “prostaglandins”, “L-NAME i.p. (70” for “indomethacin s.c. (30”, “NO synthase” for “the prostaglandin synthesis”, “saline)” for “5% NaHCO3)”, “(L-NAME-treated).” for “(IND-treated).”

[7] = system: HCl/EtOH-induced gastric lesions in RR-pretreated mice; test: HCl/EtOH-induced gastric lesions in ruthenium red (RR)-pretreated mice; assay type: in vivo; conditions: RR 3.5 mg/kg s.c. 30 min before; 1a 35 mg/kg, 3a 40 mg/kg oral
Procedure: as §2, with “vanilloid receptor” for “endogenous prostaglandins”, “RR” for “indomethacin”, “(3.5” for “(30”, “a vanilloid receptor antagonist” for “an inhibitor of the prostaglandin synthesis”, “saline)” for “5% NaHCO3)”, “(RR-treated).” for “(IND-treated).”

[8] = system: HCl/EtOH-induced gastric lesions in mice; set-up: method as in PMID 21922901; conditions: cited from earlier work
[9] = system: human fibroblast (MRC fibroblasts); test: Cytotoxicity MTT assay, fibroblasts; assay type: cell-based; conditions: 48 h incubation
Procedure: as §1

[10] = system: human epithelial gastric cells (AGS); test: Cytotoxicity MTT assay, AGS cells; assay type: cell-based; conditions: 48 h incubation
Procedure: as §1

| SMILES | gastroprotective activity (in words) [1] | Lesion Index (mm) [1] [mm] | % Lesion Reduction [1] | IC50 at 48 h [2] [µM] | IC50 at 48 h [3] [µM] | further results |
| --- | --- | --- | --- | --- | --- | --- |
| CC(C)=CCC/C(C)=C/CC/C(C)=C/CC[C@]1(C)C=Cc2cc(O)cc(C)c2O1 [Compound 1a, sargaol] | exhibited gastroprotective activity | 20.0 ± 3.6 | 52 * % | 18 ± 4 | 12 ± 3 | effect of indomethacin pre-treatment on the gastroprotective effect [4]: reversed significantly; effect of indomethacin pre-treatment on the gastroprotective effect ([4]; listed as sargaol): attenuated; effect of NEM pre-treatment on the gastroprotective effect [5]: reduced; also recorded: reversed significantly; effect of NEM pre-treatment on the gastroprotective effect ([5]; listed as sargaol): attenuated; effect of L-NAME pre-treatment on the gastroprotective effect [6]: has not attenuated; effect of ruthenium red pre-treatment on the gastroprotective effect [7]: did not reduce; gastroprotective activity ED50 [8]: 35 mg/kg |
| Cc1cc(O)cc2c1OC1(C)CCC3C(C)(CCC4C(C)(C)C(O)CCC43C)C1C2 (stereo not drawn) [Compound 3a, epitaondiol] | exhibited gastroprotective activity | 16.7 ± 3.1 | 60 * % | 29 ± 3 | – | IC50 [9]: 19 ± 4 µM; effect of indomethacin pre-treatment on the gastroprotective effect [4]: attenuated; effect of indomethacin pre-treatment on the gastroprotective effect ([4]; listed as epitaondiol): reversed significantly; effect of NEM pre-treatment on the gastroprotective effect [5]: reduced; effect of NEM pre-treatment on the gastroprotective effect ([5]; listed as epitaondiol): reversed significantly; effect of L-NAME pre-treatment on the gastroprotective effect [6]: reduced; effect of L-NAME pre-treatment on the gastroprotective effect ([6]; listed as epitaondiol): reversed significantly; effect of ruthenium red pre-treatment on the gastroprotective effect [7]: did not reduce; gastroprotective activity ED50 [8]: 40 mg/kg |
| Cc1cc(O)cc2c1OC1(C2)C(C)CCC2C3(C)CCC(O)C(C)(C)C3CCC21C (stereo not drawn) [Compound 4a, stypodiol] | gastroprotective activity in similar way than positive control | 13.0 ± 4.0 | 69 * % | 153 ± 9 | 215 ± 8 | gastroprotective activity (in words) ([1]; listed as stypodiol): exhibited gastroprotective activity; inhibition of the appearance of gastric mucosal lesions [1]: 69% |
| Cc1cc(O)cc2c1OC1(C)CCC3C(C)(CCC4C(C)(C)C(O)CCC43C)C1C2 (stereo not drawn) [Compound 5a, isoepitaondiol] | gastroprotective activity in similar way than positive control | 9.1 ± 3.6 | 78 * % | – | – | gastroprotective activity (in words) ([1]; listed as isoepitaondiol): exhibited gastroprotective activity; inhibition of the appearance of gastric mucosal lesions [1]: 78%; IC50 [10]: 42 ± 2 µM; IC50 [9]: 65 ± 3 µM |
| COc1c(C)cc(OC(C)=O)cc1CC1C(C)CCC2C3(C)CCC(OC(C)=O)C(C)(C)C3=CCC12C (stereo not drawn) [Compound 7, O,C(3)-seco-9-ene-6β-taondiol diacetate] | – | – | – | 85 ± 5 | 102 ± 6 | – |
| CC(=O)Oc1c(Cl)c(C)c2c(c1OC(C)=O)CC1(O2)C(C)CCC2C3(C)CCC(OC(C)=O)C(C)(C)C3CCC21C (stereo not drawn) [Compound 8, 4'-chlorostypotriol triacetate] | – | – | – | 11 ± 1 | 12 ± 1 | – |
| CC(=O)Oc1cc(C)c2c(c1OC(C)=O)CC1(O2)C(C)CCC2C3(C)CCC(OC(C)=O)C(C)(C)C3CCC21C (stereo not drawn) [Compound 9, stypotriol triacetate] | inactive | 36.4 ± 5.2 | 12% | 14 ± 3 | 21 ± 5 | – |
| CC(=O)Oc1cc(C)c2c(c1OC(C)=O)CC1(O2)C(C)CCC2C3(C)CCC(=O)C(C)(C)C3CCC21C (stereo not drawn) [Compound 11, 14-ketostypodiol diacetate] | inactive | 37.9 ± 7.3 | 9% | 65 ± 4 | 102 ± 6 | – |
| Cc1c(OCC(F)(F)F)ccnc1C[S+]([O-])c1nc2ccccc2[nH]1 (stereo not drawn) [Lansoprazole, lansoprazole, reference compound] | – | 14.1 ± 3.6 | 66 * % | 198 ± 5 | 392 ± 6 | – |
